Earlier results, collected in patent US20070031352A1, “Powdery preparations containing diethylamino-hydroxybenzoyl-hexyl-benzoate” (BASF Aktiengesellschaft, priority 2003, published 2007).

Details: at 354 nm

absorbance coefficient: 940
Structure (SMILES): CCCCCCOC(=O)c1ccccc1C(=O)c1ccc(N(CC)CC)cc1O [Uvinul® A Plus, diethylamino hydroxybenzoyl hexyl benzoate]
